This passage reports EC50 results from patent publication US8729084B2, “Benzofuranyl analogues as GPR119 modulators” (Bristol-Myers Squibb Company, priority 2010, dated 2014).

The target in the first experiment is T1, chimeric human/mouse GPR119 (Homo sapiens, UniProt Q8TDV5, A235T/C313R/C323Y/E253K/F304I/F307L/G211A/G245S/H255C/K284R/L224V/L258Q/L288Q/L301F/P218V/P318T/Q252H/R262K/S214P/S219N/S228A/S309P/S322A/T217S/T239S/V227I/V300F).
T1 construct: the first 198 amino acids of human GPR119; the C-terminal 137 amino acids of the mouse receptor; expressed in transfected cells
T1 sequence (Q8TDV5 with tags, fused parts or gaps G211A/S214P/T217S/P218V/S219N/L224V/V227I/S228A/A235T/T239S/G245S/Q252H/E253K/H255C/L258Q/R262K/K284R/L288Q/V300F/L301F/F304I/F307L/S309P/C313R/P318T/S322A/C323Y): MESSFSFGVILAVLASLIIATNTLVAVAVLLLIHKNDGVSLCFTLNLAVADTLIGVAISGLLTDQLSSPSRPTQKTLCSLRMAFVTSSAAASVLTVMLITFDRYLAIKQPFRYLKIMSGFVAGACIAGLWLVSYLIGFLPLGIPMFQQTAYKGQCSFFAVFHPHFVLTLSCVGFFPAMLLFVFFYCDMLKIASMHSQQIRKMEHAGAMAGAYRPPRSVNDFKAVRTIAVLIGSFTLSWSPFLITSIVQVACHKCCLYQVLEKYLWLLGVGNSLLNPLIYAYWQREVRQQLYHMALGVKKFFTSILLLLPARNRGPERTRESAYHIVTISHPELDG
Put plainly: Tet-inducible cAMP assay (cAMP accumulation, HTRF).
Details: not given
The class given is cell-based. How it is done: The in vitro modulation of recombinant human GPR119 was determined as follows.
A human-mouse chimeric GPR119 expression construct encoding 3 copies of the FLAG epitope tag, the first 198 amino acids of human GPR119 and the C-terminal 137 amino acids of the mouse receptor was cloned into a tetracycline inducible vector pcDNA5/FRT/TO (Invitrogen #V6520-20), which includes a hygromycin-resistance marker. Tightly controlled receptor expression was achieved by stable integration of this construct into the genome of a specific host cell line, Flp-In-T-Rex-HEK293, expressing the tetracycline repressor (Invitrogen). Once a stable hygromycin-resistant cell line was generated, the cells were maintained at 37° C. in a humidified 5% CO2 atmosphere in culture medium consisting of Dulbecco's modified Eagle's medium (DMEM; Invitrogen #11960) supplemented with 2 mM L-glutamine, 10% fetal bovine serum, 200 μg/ml hygromycin B, and 15 μg/ml blasticidin.
Forty-eight hours prior to the cAMP accumulation assay, cells stably expressing the chimeric human/mouse GPR119 construct were seeded at a density of 4×10^3 cells/well in 384 well poly-D-lysine coated solid white plates (BD #35-6661) and grown at 37° C. in a humidified 5% CO2 atmosphere in culture medium supplemented with 1 μg/ml tetracycline to induce expression of the receptor. On the day of the assay, medium was removed and cells were incubated for 50 min. at 37° C. in a humidified 5% CO2 atmosphere in 20 μl/well of assay buffer (phosphate-buffered saline with Ca^2+ and Mg^2+, 12 mM glucose, 0.1 mM isobutyl-methyl-xanthine, 0.1% fatty-acid free bovine serum albumin) with the desired concentration of compound added from a concentrated stock dissolved in dimethyl sulfoxide (DMSO) to give a final concentration of 1% DMSO in the assay. cAMP accumulation was measured using the CisBio homogeneous time resolved fluorescence (HTRF) assay kit (#62AM2PEC) following the manufacturer's protocol. Briefly, 10 μl each of the cAMP-HTRF fluorescence detection reagents were added to each well, and the samples were incubated for 40 min. at room temperature. Fluorescence was excited at 320 nm and measured at 665 and 620 nm using the Envision instrument (Perkin Elmer), the fluorescence ratio of 665/620 was calculated and converted to nanomolar concentrations of cAMP in each well by interpolation from a cAMP standard curve. The concentration-response curves and EC50 values were calculated with a four parameter logistic curve fit equation utilizing Excel/XLfit software (Microsoft and IDBS). The EC50 value was calculated as the concentration of agonist which increased the cAMP concentration to a value halfway between the baseline and the maximum.
Compounds of the present invention were tested in the Tet-inducible cAMP assay described immediately above and the results shown in Table 2 below were obtained.
Broadly, the EC50 is the midpoint of the concentration-response curve. Regarding `CCCc1cnc(N2CCC(C3Cc4cc(C5=CCN(S(=O)(=O)CCCCO)CC5)cc(F)c4O3)CC2)nc1` (stereo not drawn) [Example 4, 4-(4-(7-Fluoro-2-(1-(5-propylpyrimidin-2-yl)piperidin-4-yl)-2,3-dihydrobenzofuran-5-yl)-5,6-dihydropyridin-1(2H)-ylsulfonyl)butan-1-ol], it took 168 nM to reach a half-maximal effect (EC50).
`CCCc1cnc(N2CCC(C3Cc4cc(N5CCN(S(=O)(=O)CCC)CC5)ccc4O3)CC2)nc1` (stereo not drawn) [Example 9, 5-Propyl-2-(4-(5-(4-(propylsulfonyl)piperazin-1-yl)-2,3-dihydrobenzofuran-2-yl)piperidin-1-yl)pyrimidine] gave a half-maximal effective concentration (EC50) of 1060 nM.
The same measure, in the same setting: then `CCCS(=O)(=O)N1CC=C(c2ccc3c(c2)CC(C2CCN(C(=O)OC4CCCCC4)CC2)O3)CC1` (stereo not drawn) [Example 44], with 9.7 nM.
On the same count and under the same terms, as for `CCCc1cnc(N2CCC(C3Cc4cc(C5=CCN(S(=O)(=O)CCC)CC5)cc(F)c4O3)CC2)nc1` (racemic) [Example 5, (±)-2-(4-(7-Fluoro-5-(1-(propylsulfonyl)-1,2,3,6-tetrahydropyridin-4-yl)-2,3-dihydrobenzofuran-2-yl)piperidin-1-yl)-5-propylpyrimidine], the figure is 61.8 nM.

The same experiment, now with this note: Flp-In-T-Rex-HEK293 cells, tetracycline-induced receptor expression; cAMP accumulation after 50 min at 37° C.; read-out: GPR119 EC50.
Take `CC1(C2CCN(c3ncc(C4CC4)cn3)CC2)Cc2cc(C3=CCN(S(=O)(=O)CCCCO)CC3)ccc2O1` (stereo not drawn) [Example 11, 4-(4-(2-(1-(5-Cyclopropylpyrimidin-2-yl)piperidin-4-yl)-2-methyl-2,3-dihydrobenzofuran-5-yl)-5,6-dihydropyridin-1(2H)-ylsulfonyl)butan-1-ol]: the EC50 is 8.9 nM.
The same measure, in the same setting: then `CCCS(=O)(=O)N1CC=C(c2cc(F)c3c(c2)CC(C2CCN(c4ncc(Cl)cn4)CC2)O3)CC1` (stereo not drawn) [Example 39], with 3.1 nM; and `CCCS(=O)(=O)N1CCC(C2Cc3cc(C4=CCN(S(C)(=O)=O)CC4)ccc3O2)CC1` (stereo not drawn) [Example 21], with 2430 nM.
With `CC(C)CS(=O)(=O)N1CC=C(c2cc(F)c3c(c2)CC(C2CCN(c4ncc(Cl)cn4)CC2)O3)CC1` (stereo not drawn) [Example 40], the EC50 was found to be 3.4 nM.
Still for that read-out and setting: as for `CCCS(=O)(=O)N1CC=C(c2ccc3c(c2)CC(C2CCN(c4ccc(Cl)cn4)CC2)O3)CC1` (stereo not drawn) [Example 41], the figure is 82.7 nM.
